Results reported in ChEMBL document CHEMBL1201862, “PubChem BioAssay data set” (2004).
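A five-concentration, 48-hour dose response in 96-well plates underlies each endpoint, interpolated linearly between surrounding concentrations. At the GI50, growth is halved.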 Activity calls are given as the source filed them. Cut-off read from the data, not from the text of the source: active = GI50 up to about 1.1 µM and inactive = higher.

Legend:
Assay in all cases: growth of human tumour cells (NCI), 48 h
[1] = test system: CAKI-1
[2] = test system: COLO 205
[3] = test system: DU-145
[4] = test system: EKVX
[5] = test system: HCC 2998
[6] = test system: HL-60
[7] = test system: HOP-62
[8] = test system: Hs-578T
[9] = test system: LOX IMVI
[10] = test system: M14
[11] = test system: NCI-H460
[12] = test system: OVCAR-5
[13] = test system: RXF 393
[14] = test system: SF-268
[15] = test system: SF-539
[16] = test system: SK-OV-3
[17] = test system: SN12C
[18] = test system: SW-620
[19] = test system: T47D
[20] = test system: UO-31

SMILES	GI50 [1]	GI50 [2]	GI50 [3]	GI50 [4]	GI50 [5]	GI50 [6]	GI50 [7]	GI50 [8]	GI50 [9]	GI50 [10]	GI50 [11]	GI50 [12]	GI50 [13]	GI50 [14]	GI50 [15]	GI50 [16]	GI50 [17]	GI50 [18]	GI50 [19]	GI50 [20]
CCCCC(=O)NC1(c2cc3ccccc3s2)CCCCC1	> 100 µM (inactive)	> 100 µM (inactive)	> 100 µM (inactive)	> 100 µM (inactive)	> 100 µM (inactive)	4.89 µM (inactive)	> 100 µM (inactive)	> 100 µM (inactive)	> 100 µM (inactive)	> 100 µM (inactive)	> 100 µM (inactive)	> 100 µM (inactive)	> 100 µM (inactive)	> 100 µM (inactive)	33.2 µM (inactive)	> 100 µM (inactive)	> 100 µM (inactive)	> 100 µM (inactive)	> 100 µM (inactive)	> 100 µM (inactive)
COc1ccc(/C=C/C(=O)/C=C/c2ccc(OC)cc2)cc1	> 100 µM (inactive)	34.5 µM (inactive)	> 100 µM (inactive)	41.7 µM (inactive)	0.222 µM (active)	20 µM (inactive)	> 100 µM (inactive)	47.2 µM (inactive)	40.4 µM (inactive)	21.1 µM (inactive)	> 100 µM (inactive)	> 100 µM (inactive)	18.3 µM (inactive)	54.6 µM (inactive)	26.4 µM (inactive)	> 100 µM (inactive)	> 100 µM (inactive)	23.7 µM (inactive)	55.3 µM (inactive)	> 100 µM (inactive)
N=c1oc2ccccc2cc1-c1nc2ccccc2[nH]1	43.9 µM (inactive)	51.2 µM (inactive)	18.4 µM (inactive)	18.2 µM (inactive)	71.3 µM (inactive)	7.05 µM (inactive)	53 µM (inactive)	41 µM (inactive)	32.5 µM (inactive)	70.8 µM (inactive)	49.1 µM (inactive)	> 100 µM (inactive)	38.9 µM (inactive)	64.9 µM (inactive)	44.3 µM (inactive)	13.6 µM (inactive)	> 100 µM (inactive)	36.6 µM (inactive)	16.7 µM (inactive)	12.1 µM (inactive)
CN(C)N1C(=O)SCC(c2ccccc2)(c2ccccc2)C1=O	> 100 µM (inactive)	> 100 µM (inactive)	> 100 µM (inactive)	> 100 µM (inactive)	> 100 µM (inactive)	> 100 µM (inactive)	> 100 µM (inactive)	> 100 µM (inactive)	> 100 µM (inactive)	> 100 µM (inactive)	> 100 µM (inactive)	> 100 µM (inactive)	> 100 µM (inactive)	> 100 µM (inactive)	> 100 µM (inactive)	> 100 µM (inactive)	> 100 µM (inactive)	> 100 µM (inactive)	> 100 µM (inactive)	> 100 µM (inactive)
COc1cccc(N2C(=O)C3c4[nH]c5ccccc5c4C4c5ccccc5CCC4C3C2=O)c1 (stereo not given)	> 10 µM (inactive)	> 7.87 µM (inactive)	> 10 µM (inactive)	> 9.31 µM (inactive)	> 10 µM (inactive)	> 10 µM (inactive)	2.4 µM (inactive)	3 µM (inactive)	> 10 µM (inactive)	4.92 µM (inactive)	4.82 µM (inactive)	> 10 µM (inactive)	> 6.62 µM (inactive)	4.16 µM (inactive)	2.5 µM (inactive)	> 4.86 µM (inactive)	> 6.03 µM (inactive)	> 9.14 µM (inactive)	> 10 µM (inactive)	4.27 µM (inactive)
CC(=O)OC1=NN=C2COC(c3ccccc3OC(C)=O)=NN2C1	> 50 µM (inactive)	40.1 µM (inactive)	> 50 µM (inactive)	> 50 µM (inactive)	> 50 µM (inactive)	> 50 µM (inactive)	> 50 µM (inactive)	24 µM (inactive)	24.1 µM (inactive)	16.7 µM (inactive)	> 50 µM (inactive)	> 50 µM (inactive)	> 50 µM (inactive)	34.8 µM (inactive)	> 50 µM (inactive)	> 50 µM (inactive)	> 50 µM (inactive)	> 50 µM (inactive)	> 50 µM (inactive)	38.2 µM (inactive)
O=C1c2ccccc2C(=O)c2c1ccc1conc21	4.22 µM (inactive)	5.65 µM (inactive)	2.59 µM (inactive)	2.08 µM (inactive)	15.8 µM (inactive)	0.402 µM (active)	4.3 µM (inactive)	8.93 µM (inactive)	0.469 µM (active)	2.26 µM (inactive)	5.51 µM (inactive)	3 µM (inactive)	3.08 µM (inactive)	2.56 µM (inactive)	1.95 µM (inactive)	6.46 µM (inactive)	1.87 µM (inactive)	2.1 µM (inactive)	0.398 µM (active)	4.33 µM (inactive)
CC(=O)O[C@H]1CC[C@@]2(C)C(=CC[C@H]3[C@@H]4C[C@H](N5CCN(C)CC5)[C@H](OC(C)=O)[C@@]4(C)CC[C@@H]32)C1	33.3 µM (inactive)	17.1 µM (inactive)	> 100 µM (inactive)	20.7 µM (inactive)	15.5 µM (inactive)	2.44 µM (inactive)	25.1 µM (inactive)	26.2 µM (inactive)	3.03 µM (inactive)	3.27 µM (inactive)	21.6 µM (inactive)	26.1 µM (inactive)	19.1 µM (inactive)	20 µM (inactive)	4.26 µM (inactive)	> 47.2 µM (inactive)	24 µM (inactive)	15.5 µM (inactive)	17.8 µM (inactive)	> 53 µM (inactive)
CCCCCOC(=O)C(=O)Nc1[nH]nnc1C(N)=O	> 100 µM (inactive)	> 100 µM (inactive)	> 100 µM (inactive)	> 100 µM (inactive)	> 100 µM (inactive)	> 100 µM (inactive)	> 100 µM (inactive)	> 100 µM (inactive)	> 100 µM (inactive)	> 100 µM (inactive)	> 100 µM (inactive)	> 100 µM (inactive)	> 100 µM (inactive)	> 100 µM (inactive)	> 100 µM (inactive)	> 100 µM (inactive)	> 100 µM (inactive)	> 100 µM (inactive)	> 100 µM (inactive)	> 100 µM (inactive)
CC(C)(C)C(=O)CC1=Nc2ccccc2SC1(O)CC(=O)C(C)(C)C (stereo not given)	14.7 µM (inactive)	16.3 µM (inactive)	25.1 µM (inactive)	16.2 µM (inactive)	14.8 µM (inactive)	30.9 µM (inactive)	26.3 µM (inactive)	20.1 µM (inactive)	17.1 µM (inactive)	29.8 µM (inactive)	13.5 µM (inactive)	19.8 µM (inactive)	23.5 µM (inactive)	25.8 µM (inactive)	22.9 µM (inactive)	13.5 µM (inactive)	21 µM (inactive)	25.5 µM (inactive)	19.7 µM (inactive)	12.3 µM (inactive)
CCOC(=O)C(C#N)C1=CC(=O)C(=O)c2ccc(OC)cc21 (stereo not given)	29 µM (inactive)	17 µM (inactive)	19.5 µM (inactive)	22.7 µM (inactive)	16.2 µM (inactive)	38.3 µM (inactive)	22 µM (inactive)	18.1 µM (inactive)	21.1 µM (inactive)	15.6 µM (inactive)	24.2 µM (inactive)	20.1 µM (inactive)	21.8 µM (inactive)	30.2 µM (inactive)	18.4 µM (inactive)	18.4 µM (inactive)	18.6 µM (inactive)	18.4 µM (inactive)	14.9 µM (inactive)	17.5 µM (inactive)
CC(=O)NC(=O)/N=C1\NCCC(=O)N1CCc1c[nH]c2ccccc12	> 100 µM (inactive)	> 100 µM (inactive)	> 100 µM (inactive)	> 100 µM (inactive)	> 100 µM (inactive)	> 100 µM (inactive)	> 100 µM (inactive)	> 100 µM (inactive)	> 100 µM (inactive)	> 100 µM (inactive)	> 100 µM (inactive)	> 100 µM (inactive)	> 100 µM (inactive)	> 100 µM (inactive)	> 100 µM (inactive)	> 100 µM (inactive)	> 100 µM (inactive)	> 100 µM (inactive)	> 100 µM (inactive)	> 100 µM (inactive)
COc1ccc(C2c3cc4c(cc3OC(NNC(N)=O)C2C)OCO4)cc1 (stereo not given)	6.71 µM (inactive)	3.95 µM (inactive)	22.3 µM (inactive)	21.5 µM (inactive)	8.51 µM (inactive)	2.2 µM (inactive)	6.28 µM (inactive)	3.53 µM (inactive)	4.39 µM (inactive)	6.41 µM (inactive)	4.94 µM (inactive)	26.6 µM (inactive)	6.92 µM (inactive)	11.2 µM (inactive)	1.16 µM (inactive)	5.26 µM (inactive)	7.16 µM (inactive)	3.56 µM (inactive)	27.4 µM (inactive)	10.6 µM (inactive)
O=C1c2sccc2C(=O)c2c(CO)csc21	15.1 µM (inactive)	2.69 µM (inactive)	2.66 µM (inactive)	6.97 µM (inactive)	3.44 µM (inactive)	1.29 µM (inactive)	4.71 µM (inactive)	4.17 µM (inactive)	2.88 µM (inactive)	2.21 µM (inactive)	2.25 µM (inactive)	21.2 µM (inactive)	1.39 µM (inactive)	6.5 µM (inactive)	3.65 µM (inactive)	11.4 µM (inactive)	6.46 µM (inactive)	6.98 µM (inactive)	4.71 µM (inactive)	7.76 µM (inactive)
